Test results reported in US8859573B2, “Pyrimidinone and pyridinone compounds for use in the treatment of diseases or conditions mediated by Lp-PLA2” (Glaxo Group Limited, priority 2010, dated 2014).
Counter-ions that a name gives are not always drawn.

Biological target: T1, Lp-PLA2 from plasma (Homo sapiens, UniProt Q13093)
T1 construct: from tissue; host or cells: pooled human plasma
T1 sequence (Q13093 22-441): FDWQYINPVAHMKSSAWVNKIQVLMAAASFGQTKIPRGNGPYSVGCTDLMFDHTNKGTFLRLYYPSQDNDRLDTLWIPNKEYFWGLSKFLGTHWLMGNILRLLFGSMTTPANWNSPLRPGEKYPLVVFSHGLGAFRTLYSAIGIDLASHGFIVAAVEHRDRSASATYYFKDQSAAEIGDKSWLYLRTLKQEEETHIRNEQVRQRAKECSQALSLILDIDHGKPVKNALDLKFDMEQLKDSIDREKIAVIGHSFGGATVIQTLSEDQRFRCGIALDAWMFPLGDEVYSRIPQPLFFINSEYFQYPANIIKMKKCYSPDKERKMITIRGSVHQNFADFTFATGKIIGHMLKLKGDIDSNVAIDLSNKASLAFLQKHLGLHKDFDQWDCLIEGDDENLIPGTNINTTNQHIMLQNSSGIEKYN
Assay: Lp-PLA2 human plasma assay (Thio-PAF assay)
Format: biochemical
Settings: pooled human plasma; read-out: pIC50 values in the thio-PAF assay (converted)
From the text: (3) Lipoprotein-Associated Phospholipase A2 (Lp-PLA2) Human Plasma Assay (Also Referred to as “Thio-PAF Assay”)
The human plasma assay utilizes a thioester analog of PAF (phosphatidylcholine), where hydrolysis yields to the formation of a phospholipid containing a free thiol group. The amount of thiol is quantitated continuously by reacting with CPM (7-diethylamino-3-(4′-maleimidylphenyl)-4-methylcoumarin), a maleimide which increases in fluoresence after Michael addition of thiols. This assay may detect the activity of Lp-PLA2 from plasma, as determined by specific inhibition by Lp-PLA2 inhibitors.
The thio-PAF assay was run as a quenched 15 μL assay. Compounds source plate was prepared by making 1:3 (by volume) serial dilution of the compounds into pure DMSO on 384-well microplate. 0.01 μL of compounds on compound source plate were transferred to 384 well Greiner 784076 (black) low-volume plates by ECHO liquid dispenser. 8 μL pooled human plasma, which was previously aliquoted and frozen, was added. Plates were centrifuged for 10 sec at 500 rpm. After 30 minutes preincubation, 2 μL of substrate (2.5 mM thio-PAF, 3.2 mM NEM (N-ethylmaleimide) [made fresh daily in DMSO], and 32 μM CPM [from a DMSO stock] in assay buffer of 50 mM HEPES, pH7.4, 150 mM NaCl, 1 mM CHAPS was added to 384 well Greiner 784076 (black) low-volume plates by BRAVO liquid handling station. Plates were centrifuged for 10 sec at 500 rpm. Plate was covered to protect from light and incubated for 2 min at room temperature. Reaction was quenched with 5 μL of 5% aqueous trifluoroacetic acid (TFA). Plates were covered to protect from light and incubated for 40 min at room temperature. Plates were read at ex: 380/em: 485 using-Envision microplate reader. PIC50 data, curve and QC analysis was conducted by using XLFit module in Excel.

| IC50 [nM] | SMILES |
| --- | --- |
| ≤ 1000 | Cn1cc(Cn2ccc(CCc3ccc(Oc4cccc(C(F)(F)F)c4)c(C#N)c3)nc2=O)cn1 [Example 20, 5-(2-{1-[(1-Methyl-1H-pyrazol-4-yl)methyl]-2-oxo-1,2-dihydro-4-pyrimidinyl}ethyl)-2-{[3-(trifluoromethyl)phenyl]oxy}benzonitrile] |
| ≤ 100 | COc1ncc(Cn2cc(Cl)c(OCCc3cnc(Oc4ccc(F)c(C(F)(F)F)c4)c(F)c3)nc2=O)cn1 [Example 37, 5-chloro-4-(2-(5-fluoro-6-(4-fluoro-3-(trifluoromethyl)phenoxy)pyridin-3-yl)ethoxy)-1-((2-methoxypyrimidin-5-yl)methyl)pyrimidin-2(1H)-one] |
| ≤ 1000 | Cn1cc(Cn2ccc(OCc3ccc(Oc4ccc(Cl)c(C(F)(F)F)c4)c(C#N)c3)cc2=O)cn1 [Example 22, 2-{[4-Chloro-3-(trifluoromethyl)phenyl]oxy}-5-[({1-[(1-methyl-1H-pyrazol-4-yl)methyl]-2-oxo-1,2-dihydro-4-pyridinyl}oxy)methyl]benzonitrile] |
| ≤ 1000 | Cn1cc(Cn2ccc(OCCc3ccc(Oc4ccc(Cl)c(C(F)(F)F)c4)cc3)cc2=O)cn1 [Example 24, 4-{[2-(4-{[4-Chloro-3-(trifluoromethyl)phenyl]oxy}phenyl)ethyl]oxy}-1-[(1-methyl-1H-pyrazol-4-yl)methyl]-2(1H)-pyridinone] |
| ≤ 1000 | O=c1nc(OCCc2ccc(Oc3ccc(Cl)c(C(F)(F)F)c3)cc2)ccn1CCc1cccnc1 [Example 13, 4-{[2-(4-{[4-Chloro-3-(trifluoromethyl)phenyl]oxy}phenyl)ethyl]oxy}-1-[2-(3-pyridinyl)ethyl]-2 (1H)-pyrimidinone trifluoroacetate] |
| ≤ 1000 | Cn1cc(Cn2cc(F)c(OCCc3ccc(Oc4cccc(C(F)(F)F)n4)cc3)nc2=O)cn1 [Example 64, 5-fluoro-1-((1-methyl-1H-pyrazol-4-yl)methyl)-4-(4-((6-(trifluoromethyl)pyridin-2-yl)oxy)phenethoxy)pyrimidin-2(1H)-one] |
| ≤ 100 | Cn1cc(Cn2cc(F)c(OCCc3ccc(Oc4ccc(Cl)c(C(F)(F)F)c4)cn3)nc2=O)cn1 [Example 55, 4-(2-(5-(4-chloro-3-(trifluoromethyl)phenoxy)pyridin-2-yl)ethoxy)-5-fluoro-1-((1-methyl-1H-pyrazol-4-yl)methyl)pyrimidin-2(1H)-one] |
| ≤ 100 | O=c1nc(OCc2ccc(Oc3ccc(Cl)c(C(F)(F)F)c3)cn2)ccn1Cc1cccnc1 [Example 14, 4{[(5-{[4-Chloro-3-(trifluoromethyl)phenyl]oxy}-2-pyridinyl)methyl]oxy}-1-(3-pyridinylmethyl)-2(1H)-pyrimidinone] |
| ≤ 100 | Cn1cc(Cn2ccc(OCCc3ccc(Oc4ccc(Cl)c(C(F)(F)F)c4)cn3)nc2=O)cn1 [Example 16, 4-{[2-(5-{[4-Chloro-3-(trifluoromethyl)phenyl]oxy}-2-pyridinyl)ethyl]oxy}-1-[(1-methyl-1H-pyrazol-4-yl)methyl]-2(1H)-pyrimidinone] |
| ≤ 100 | Cn1cc(Cn2cc(F)c(OCCc3ccc(Oc4ccc(F)c(C(F)(F)F)c4)nc3)nc2=O)cn1 [Example 39, 5-fluoro-4-(2-(6-(4-fluoro-3-(trifluoromethyl)phenoxy)pyridin-3-yl)ethoxy)-1-((1-methyl-1H-pyrazol-4-yl)methyl)pyrimidin-2(1H)-one] |
| ≤ 100 | Cn1cc(Cn2ccc(OCc3ccc(Oc4ccc(Cl)c(C(F)(F)F)c4)c(C#N)c3)nc2=O)cn1 [Example 6, 2-{[4-Chloro-3-(trifluoromethyl)phenyl]oxy}-5-[({1-[(1-methyl-1H-pyrazol-4-yl)methyl]-2-oxo-1,2-dihydro-4-pyrimidinyl}oxy)methyl]benzonitrile] |
| ≤ 100 | COc1ncc(Cn2cc(F)c(OCCc3cnc(Oc4ccc(Cl)c(C(F)(F)F)c4)c(F)c3)nc2=O)cn1 [Example 34, 4-(2-(6-(4-chloro-3-(trifluoromethyl)phenoxy)-5-fluoropyridin-3-yl)ethoxy)-5-fluoro-1-((2-methoxypyrimidin-5-yl)methyl)pyrimidin-2(1H)-one] |
